≈ marks a conversion by molar mass, not a printed value.
How the values were obtained:
[1] = tested on: swiss 3T3 mouse fibroblast cells; assay: Cell culture 3[H] thymidine assay, Example 6.2 inhibition of TPA induced proliferation (compound added together with TPA); assay type: cell-based; conditions: with 0.5µM TPA
Protocol: (§1) Cells used were swiss 3T3 mouse fibroblast cells • 1. 6 x 24 well plates were required for each experiment. • 2. Cells were removed from the standard tissue culture flask using a 1% solution of EDTA and resuspended in 10 ml of media and pipetted off into a falcon tube. • 3. The cells were then spun for 5 minutes at about 2,000rpm. • 4. The existing media was removed, and the cells again resuspended in 10ml of 10% foetal calf serum (FCS) and vortexed. • 5. The 10ml of suspension was then added to 140ml of media and mixed in a sterile jar. 1ml of the media cell suspension was then placed into each well and the plates incubated until confluent, three days .
(§2) • 1. [PCl]Cells were dosed with the test compounds (as specified below) 2 days prior to the addition of 3 [H]thymidine. The cells could only be dosed with a 0.5% solution, 5µl test solution in 1ml cellsuspension i.e. 5µl in 1ml, (TPA - 0.5µM). • 2. 0.5µl of 3[H] thymidine was added per well, therefore 72µl was added to 144µl of media (1%F.C.S.) to dose the corresponding six plates. • 3. 100µl of the media was taken to measure the measure the radioactive dose […], and added to 4ml of scintillation fluid. • 4. The radioactive media was then transferred to sterile specimen tubes and dosed with the test compounds before adding to the cells. • 5. After four hours ofbeing pulsed with radiolabelled thymidine (0.5µCi/ml) the media was removed and washed down the sink. • 6. The cells were washed twice with ice cold phosphate buffered saline (PBS), 0.5ml per well, and incubated for 30 min using ice cold 5% trichloroacetic acid (TCA) ( 1ml) per well at room temperature. • 8. The TCA was then removed and another 1ml of 5% TCA was added for 5 minutes. After the TCA was removed and 0.3NaOH and 0.1% sodium dodecyl sulphate added to each well for 30 minutes (1ml/well). • 9. The contents of each well was added to scintillation vials containing 4ml of scintillation fluid and each sample counted for four minutes using a scintillation counter. Three different assays were carried out using this protocol; • 6.1. Cytotoxicity testing of the compounds. After 48 hours of incubation and the cells were confluent a predetermined quantity of the test compounds was added to the cells. • 6.2. Inhibition of TPA induced proliferation. After 48 hours a preditermined quantity concentration of the test compounds was added to the cells as well as 0.5um of TPA. […] Inhibition of TPA induced proliferation. After 48 hours a predetermined quantity concentration of the test compounds was added to the cells for 24 hours, at 72 hours the media was changed again to contain both test compound and 0.5µM of the TPA. The objective of this experiment was to observe whether the prior incubation with the test compound had any effect on the TPA induced proliferation of the cells.

Blood platelets = assay: Inhibition of blood platelet aggregation (TPA or ADP induced) in platelet rich plasma; assay type: cell-based, human; conditions: for Percentage Inhibition of ADP Induced Aggregation: ADP 6.4 µg; for Percentage Inhibition of TPA Induced Aggregation: TPA 0.5µg
Protocol: Blood platelets release inflammatory mediators in response to an external stimulus, which affect the proliferation of the cells, which is an important part of the disease psoriasis. • 1. Male human blood was collected via venipucture of the forearm directly in to anticoagulant buffer, from healthy donors who had denied any medication for two weeks, and centrifuged at 1000rpm for 20 minutes at room temperature. • 2. The supernatant was employed as platelet rich plasma (PRP). Platelet poor plasma (PPP) was obtained by centrifuging 1ml of PRP at 11,000 rpm for 10 minutes. • 3. Inhibition of platelet aggregation was tested by adding 2.5µl of a known concentration (containing 10µg or 50µg) of the test compound to a 500µl sample ofPRP for one minute. An aggregation agent was then added as a solution to the sample in a 2.5µl quantity (containing TPA 0.5,µg or ADP 6.4 µg). Aggregation was measured using a dual channel aggregometer . • 4. Aggregation was taken as the % change in light transmission compared to the maximum change produced by TPA or ADP plus the control solution. PRP was used as a standard for zero light transmission and PP for 100% light transmission.

[2] = tested on: swiss 3T3 mouse fibroblast cells; assay: Cell culture 3[H] thymidine assay, Example 6.1 cytotoxicity testing (normal cell growth); assay type: cell-based; conditions: for Percentage Inhibition of 3T3 Swiss Fibroblast Growth, Example 6.1: cytotoxicity, no TPA
Protocol: as §1, §2

Female CD1 mice = assay: Topical chemical erythema: inhibition of TPA induced erythema on the mouse ear; assay type: in vivo; conditions: for ED50 (dose required to inhibit erythema in at least 50% of the animals): applied to the right ear in 5µl, 20 minutes prior to TPA (0.1µg/5µl); for inhibition of chemically induced (TPA) erythema on the mouse ear, result in words: comparison among extracts or among the three chalcones
Protocol: Ref. Williamson E.M. and Evans F. (1981), Inhibition of erythema induced by proinflammatory esters of 12-deoxyphorbol. Acta Pharmacol. Toxicol.,48, 47-52
Female CD1 mice, weighing approximately 20g were used. • 2. Test plant extracts as produced in Example 1 were applied externally to the right ear of each mouse, at predetermined concentrations in 5µl quantities, 20 minutes prior to the application of the irritant compound 12-O-tetradecanoylphorbal-13-acetate (TPA)(0.1µg/5µl). • 3. A […] response was indicated by redness and inflammation of the ear. • 4. Observations were recorded at 2,3,4,6,7, and 24 hours after the application of TPA. Maximum inflammation caused by TPA alone occurs at 6 hours after the application of TPA.
Erythema of the mouse ear is the simplest experiment to perform as mice have translucent ears in which reddening is easily visible. Quantification is subjective, however the erythema can be described as pronounced, slight or absent. • Isoliquiritigenin ED50 (dose required to inhibit erythema in at least 50% of the animals) 20-50,µg • Licochalcone B ED50 5-10µg • Echinatin ED50 5-10µg

[3] = tested on: swiss 3T3 mouse fibroblast cells; assay: Cell culture 3[H] thymidine assay, Example 6.3 inhibition of TPA induced proliferation (24 hours prior incubation with compound); assay type: cell-based; conditions: compound 24 hours before compound + 0.5µM TPA
Protocol: as §1, §2

male Wistar rats = assay: UV-B induced erythema (dermatitis) in rat, epidermal thickness and number of epidermal cell layers; assay type: in vivo; conditions: five days; for No. of cells (epidermal proliferation as compared to the control, no treatment) / Thickness (epidermal thickening as compared to the control, no treatment): control = 100
Protocol: Rat UV-B induced dermatitis is characterised by a brownish red lesion with scab formation. Histologically, microvascular dilation, intraepidermal accumulation ofleukocytes and hyperproliferation of epidermal cells are all very similar to the symptoms of psoriasis in man (Nakaguma,H., Int. J.ofExp.Path, 76:65-73, 1995) • 1. Hair on the dorsal skin of male Wistar rats (180g) was clipped and shaved, whilst the rats were under anaesthesia, 24 hours prior to the experiment. • 2. The rats were covered by a black plastic sheeting, with two rectangular holes (about 1cm^2) cut out, thus allowing two exposure sites on the dorsal skin whilst protecting the rest of the animal. • 3. The rats were then exposed to UV-B light (302nm) at a distance of 10cm for six minutes and thirty seconds. The total W-B exposure was 2.4J/cm^2 as measured using a UV-X radiometer. • 4. The test compound was then placed onto one of the exposed areas and an unexposed area at a concentration of 100µg/5µl, in a suitable vehicle solution. • 5. Application of the test compound was repeated for five days. • 6. Histological post-mortem sections were taken on the fifth day, and stained using haematoxylin and eosin. The number ofepidermal cell layers and the epidermal thickness was counted and measured at random. Five animals were used per test group.

[4] = tested on: human polymorphonuclear neutrophils; conditions: properties associated with inflammatory processes; cited from earlier work
platelets = conditions: cited from earlier work
[5] = Conc. 10µg test compound in 500µl PRP
[6] = Conc. 50µg test compound in 500µl PRP
[7] = Active Compound Only, unexposed area, 100µg/5µl
[8] = UV Exposure + Active Compound versus UV Exposure, 100µg/5µl
[9] = UV Exposure + Active Compound, 100µg/5µl topical

Row | Compound | Percentage Inhibition of 3T3 Swiss Fibroblast Growth, Example 6.2 ([1]; Concentration 1 µg) [%] | Percentage Inhibition of 3T3 Swiss Fibroblast Growth, Example 6.2 ([1]; Concentration 10 µg) [%] | Percentage Inhibition of 3T3 Swiss Fibroblast Growth, Example 6.2 ([1]; Concentration 20 µg) [%] | Percentage Inhibition of ADP Induced Aggregation (Blood platelets; [6]) [%] | Percentage Inhibition of TPA Induced Aggregation (Blood platelets; [6]) [%] | Percentage Inhibition of 3T3 Swiss Fibroblast Growth, Example 6.1 ([2]; Concentration 1 µg) [%] | Percentage Inhibition of 3T3 Swiss Fibroblast Growth, Example 6.1 ([2]; Concentration 10 µg) [%] | Percentage Inhibition of 3T3 Swiss Fibroblast Growth, Example 6.1 ([2]; Concentration 20 µg) [%] | ED50 (dose required to inhibit erythema in at least 50% of the animals) (Female CD1 mice) [µg] | inhibition of chemically induced (TPA) erythema on the mouse ear, result in words (Female CD1 mice) | Percentage Inhibition of 3T3 Swiss Fibroblast Growth, Example 6.3 ([3]; Concentration 1 µg) [%] | Percentage Inhibition of 3T3 Swiss Fibroblast Growth, Example 6.3 ([3]; Concentration 10 µg) [%] | Percentage Inhibition of 3T3 Swiss Fibroblast Growth, Example 6.3 ([3]; Concentration 20 µg) [%] | further results
1 | COc1cc(O)ccc1/C=C/C(=O)c1ccc(O)cc1 [Echinatin, echinatin] | 42 | 98 | 99 | 14 | 6 | 85 | 94 | 99 | 5 to 10 | most effective | 65 | 96 | 96 | Percentage Inhibition of ADP Induced Aggregation (Blood platelets; [5]): 13%; Percentage Inhibition of 3T3 Swiss Fibroblast Growth, Example 6.1 ([2]; Concentration 1 µg, listed as echinatin): up to 82%; EC50 ([2]; Mus musculus, normal cell growth of 3T3 cells, exact value not established): 0.1 to 1 µg/mL (≈ 0.37 to 3.7 µM)
2 | COc1c(/C=C/C(=O)c2ccc(O)cc2)ccc(O)c1O [Licochalcone B, licochalcone B] | 31 | 32 | 73 | 15 | 13 | 41 | 55 | 86 | 5 to 10 | most effective | 22 | 69 | 85 | Percentage Inhibition of 3T3 Swiss Fibroblast Growth, Example 6.2 ([1]; Concentration 0.01 µg): +26%; Percentage Inhibition of 3T3 Swiss Fibroblast Growth, Example 6.2 ([1]; Concentration 0.1 µg): 17%; Percentage Inhibition of TPA Induced Aggregation (Blood platelets; [5]): 4%; Percentage Inhibition of 3T3 Swiss Fibroblast Growth, Example 6.1 ([2]; Concentration 0.01 µg): 16%; Percentage Inhibition of 3T3 Swiss Fibroblast Growth, Example 6.1 ([2]; Concentration 0.1 µg): 13%; Percentage Inhibition of 3T3 Swiss Fibroblast Growth, Example 6.3 ([3]; Concentration 0.01 µg): 2%; Percentage Inhibition of 3T3 Swiss Fibroblast Growth, Example 6.3 ([3]; Concentration 0.1 µg): 37%; No. of cells (epidermal proliferation as compared to the control, no treatment) (male Wistar rats; [7]): 103%; Thickness (epidermal thickening as compared to the control, no treatment) (male Wistar rats; [7]): 96%; Percentage inhibition of epidermal proliferation (No. of cells, in brackets) (male Wistar rats; [8]): (83) %; Percentage inhibition of epidermal thickening (in brackets) (male Wistar rats; [8]): (75) %; No. of cells (epidermal proliferation as compared to the control, no treatment) (male Wistar rats; [9]): 129%; Thickness (epidermal thickening as compared to the control, no treatment) (male Wistar rats; [9]): 135%; effect on degranulation in human polymorphonuclear neutrophils [4]: had an effect
3 | CCCCCCCCCCCCCC(=O)O[C@@H]1[C@@H](C)[C@@]2(O)[C@@H](C=C(CO)C[C@]3(O)C(=O)C(C)=C[C@@H]23)[C@@H]2C(C)(C)[C@]12OC(C)=O [TPA, 12-O-tetradecanoylphorbol-13-acetate] | – | – | – | – | – | – | – | – | – | – | – | – | – | concentration causing irreversible platelet aggregation (platelets): 0.2 µM
